The series concerns CYP1A2. In words: CYP induction in vitro. It is filed as in vitro ADME. The note with it: positive control omeprazole, minimal, concentration dependent.

SMILES strings stand for the structures.

With `N#Cc1cnc(Nc2cc(NCC3CNCCO3)c(C(F)(F)F)cn2)cn1` (stereo not shown) [SRA737, 5-[[4-[[morpholin-2-yl]methylamino]-5-(trifluoromethyl)-2-pyridyl]amino]pyrazine-2-carbonitrile], the “induction of CYP1A2” value is under 10 % positive control.

Values taken from patent US20220226338A1, “Methods of Treating Cancer Using CHK1 Inhibitors” (Sierra Oncology, Inc., priority 2019, published 2022).
